This is an account of results in patent US20260055117A1, “SUBSTITUTED PYRIDONE GPR84 ANTAGONISTS AND USES THEREOF” (Liminal BioSciences Limited, priority 2022, published 2026).

As usually defined, the IC50 is the midpoint of a concentration-inhibition curve. Low readings indicate inhibition by little substance, high ones a need for much substance. As a reminder, the inhibition is how much of the control response was suppressed. A high value points to strong suppression.

This experiment concerns the target T1, human GPR84 receptor (Homo sapiens, UniProt Q9NQS5).
T1 construct: host or cells: HEK293, transiently transfected
In words: Gαi biosensor BRET assay (GPR84 antagonism vs agonist ZQ-16). As to conditions: HEK293 cells, 200 nmol/L agonist ZQ-16; for IC50: Gαi biosensor BRET assay; for inhibition at 10 µM: tested at 10 μM (concentration code D); for inhibition at 2 µM: tested at 2 μM (concentration code A). It counts as cell-based. In outline: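 HEK293 cells transiently expressing GPR84, Gαi2-Rluc8, GFP10-Gγ2 and Gβ1 were pre-incubated with compounds 5 min at 37 °C in Tyrode's buffer pH 7.5, then stimulated with 200 nmol/L ZQ-16 for 5 min at room temperature. BRET2 (acceptor/donor ratio) read after 5 μmol/L coelenterazine 400A, background- and vehicle-corrected.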

T1 sequence (Q9NQS5 whole entry): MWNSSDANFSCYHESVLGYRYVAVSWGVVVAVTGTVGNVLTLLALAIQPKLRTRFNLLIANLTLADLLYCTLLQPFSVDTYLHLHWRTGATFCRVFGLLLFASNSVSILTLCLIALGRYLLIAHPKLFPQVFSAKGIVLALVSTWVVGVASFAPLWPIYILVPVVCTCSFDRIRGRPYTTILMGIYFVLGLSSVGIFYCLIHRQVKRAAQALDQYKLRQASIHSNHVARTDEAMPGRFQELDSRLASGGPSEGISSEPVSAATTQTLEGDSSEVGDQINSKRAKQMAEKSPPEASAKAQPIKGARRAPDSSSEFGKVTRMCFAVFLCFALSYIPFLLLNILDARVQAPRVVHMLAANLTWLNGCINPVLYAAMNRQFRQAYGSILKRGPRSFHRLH

The molecule `COC(COc1cc(C)n([C@H](C)c2ccc(C#CC3CC3)cc2)c(=O)c1)C(C)(C)C` (some centres unmarked) [Compound I-277] displayed an IC50 of more than 3000 nM and an inhibition at 10 µM of more than 75%. Molecule `Cc1cc(OCC(=O)N(C2CC2)C2CC2)cc(=O)n1[C@H](C)c1ccc(C#CC2CC2)cc1` [Compound I-278] came in with an IC50 not above 300 nM and an inhibition at 2 µM of more than 75%. For `Cc1cc(OCC(=S)N(C)C)cc(=O)n1[C@H](C)c1ccc(C#CC2CC2)cc1` [Compound I-279], the inhibition at 2 µM is more than 75%.

In turn, `Cc1cc(OCCN(C)C)cc(=O)n1[C@H](C)c1ccc(C#CC2CC2)cc1` [Compound I-280] registered an inhibition at 10 µM of 50 to 75%. Molecule `Cc1cc(OCCN2CCCC2)cc(=O)n1[C@H](C)c1ccc(C#CC2CC2)cc1` [Compound I-281] registered an inhibition at 10 µM of 25 to 50%.

In turn, `Cc1cc(OCC(=O)N2CC3(CCC3)C2)cc(=O)n1[C@H](C)c1ccc(C#CC2CC2)cc1` [Compound I-282] showed an IC50 not above 300 nM and an inhibition at 2 µM of more than 75%. `Cc1cc(OCC(=O)N2CC3(COC3)C2)cc(=O)n1[C@H](C)c1ccc(C#CC2CC2)cc1` [Compound I-283] displayed an IC50 not above 300 nM and an inhibition at 10 µM of more than 75%. With `Cc1cc(OCC(=O)N2CC3CC3C2)cc(=O)n1[C@H](C)c1ccc(C#CC2CC2)cc1` (some centres unmarked) [Compound I-284], the IC50 was not above 300 nM and the inhibition at 2 µM was more than 75%. `Cc1cc(OCC(=O)N2CC3C(C2)C3(C)C)cc(=O)n1[C@H](C)c1ccc(C#CC2CC2)cc1` (some centres unmarked) [Compound I-285] gave an IC50 of 300 to 1000 nM and an inhibition at 10 µM of more than 75%.

Molecule `Cc1cc(OCC(=O)N(C)C)c(O)c(=O)n1[C@H](C)c1ccc(C#CC2CC2)cc1` [Compound I-286] gave an inhibition at 10 µM of 50 to 75%.

On to `C[C@H](c1ccc(C#CC2CC2)cc1)n1c(CO)cc(OCC(=O)N(C)C)cc1=O` [Compound I-287], for which the inhibition at 10 µM is more than 75%. Regarding `Cc1cc(OCC(=O)N2CC(F)C2)cc(=O)n1[C@H](C)c1ccc(C#CC2CC2)cc1` [Compound I-288], the IC50 was in the range of 300 to 1000 nM and the inhibition at 2 µM is more than 75%. The molecule `Cc1cc(OCC(=O)N2CC3(CCO3)C2)cc(=O)n1[C@H](C)c1ccc(C#CC2CC2)cc1` [Compound I-289] came in with an IC50 not above 300 nM and an inhibition at 10 µM of more than 75%. `Cc1cc(OCC(=O)N2CC(C)C2)cc(=O)n1[C@H](C)c1ccc(C#CC2CC2)cc1` [Compound I-290] displayed an IC50 not above 300 nM and an inhibition at 2 µM of more than 75%. With `Cc1cc(OCC(=O)N2CC(CO)C2)cc(=O)n1[C@H](C)c1ccc(C#CC2CC2)cc1` [Compound I-291], the IC50 was not above 300 nM and the inhibition at 2 µM is more than 75%. With `COCC1CN(C(=O)COc2cc(C)n([C@H](C)c3ccc(C#CC4CC4)cc3)c(=O)c2)C1` [Compound I-292], the IC50 was not above 300 nM and the inhibition at 2 µM is more than 75%. The like results for `Cc1cc(OCC(=O)N2CC(O)C2)cc(=O)n1[C@H](C)c1ccc(C#CC2CC2)cc1` [Compound I-293] were, in that order, not above 300 nM and more than 75%. In turn, `COC1CN(C(=O)COc2cc(C)n([C@H](C)c3ccc(C#CC4CC4)cc3)c(=O)c2)C1` [Compound I-294] showed an IC50 not above 300 nM and an inhibition at 2 µM of more than 75%. In turn, `C#Cc1ccc([C@@H](C)n2c(C)cc(OCC(=O)N(C)C)cc2=O)cc1` [Compound I-295] had an inhibition at 5.4 µM (tested at 5.4 μM (concentration code C)) of more than 75%.

For the molecule `Cc1nc(OCC(=O)N2CCC[C@@H]2C(=O)O)cc(=O)n1[C@H](C)c1ccc(C#CC2CC2)cc1` [Compound I-296], the inhibition at 10 µM fell in the range of 50 to 75%. `Cc1nc(OCC(=O)N2CCC[C@H]2C(=O)O)cc(=O)n1[C@H](C)c1ccc(C#CC2CC2)cc1` [Compound I-297] returned an inhibition at 10 µM of more than 75%. Same read-out and setting: the result for `Cc1nc(OCC(=O)N2CC[C@@H](C(=O)O)C2)cc(=O)n1[C@H](C)c1ccc(C#CC2CC2)cc1` [Compound I-298] reads more than 75%.

For the molecule `Cc1nc(OCC(=O)N2CC[C@H](C(=O)O)C2)cc(=O)n1[C@H](C)c1ccc(C#CC2CC2)cc1` [Compound I-299], the IC50 is 1000 to 3000 nM and the inhibition at 2 µM is more than 75%.

For `Cc1cc(OCC(=O)N2CC[C@@H]2C(=O)O)cc(=O)n1[C@H](C)c1ccc(C#CC2CC2)cc1` [Compound I-300], the IC50 was 1000 to 3000 nM and the inhibition at 10 µM is more than 75%.

Consider `Cc1cc(OCC(=O)N2CC[C@H]2C(=O)O)cc(=O)n1[C@H](C)c1ccc(C#CC2CC2)cc1` [Compound I-301], for which the IC50 was in the range of 1000 to 3000 nM and the inhibition at 10 µM was more than 75%. The molecule `Cc1cc(OCC(=O)N2CC(C(=O)O)C2)cc(=O)n1[C@H](C)c1ccc(C#CC2CC2)cc1` [Compound I-302] registered an IC50 not above 300 nM and an inhibition at 2 µM of more than 75%.

In turn, `Cc1cc(OCC(=O)O)cc(=O)n1[C@@H](C)c1ccc(C#CC2CC2)cc1` [Compound I-303] displayed an inhibition at 10 µM of less than 25%. As to `Cc1cc(OCC(=O)N2CC[C@H](C(=O)O)[C@H]2C)cc(=O)n1[C@H](C)c1ccc(C#CC2CC2)cc1` [Compound I-304], the IC50 is not above 300 nM and the inhibition at 10 µM was more than 75%.

The molecule `Cc1cc(OCC(=O)N2CCC[C@H]2C#N)cc(=O)n1[C@H](C)c1ccc(C#CC2CC2)cc1` [Compound I-305] came in with an IC50 not above 300 nM and an inhibition at 2 µM of more than 75%. The like results for `Cc1cc(OCC(=O)N2CCC[C@@H]2C#N)cc(=O)n1[C@H](C)c1ccc(C#CC2CC2)cc1` [Compound I-306] were, in that order, 300 to 1000 nM and more than 75%. Molecule `Cc1cc(OCC(=O)N2CCC[C@@H]2C2CC2)cc(=O)n1[C@H](C)c1ccc(C#CC2CC2)cc1` [Compound I-307] gave an IC50 not above 300 nM and an inhibition at 2 µM of more than 75%. Take `Cc1cc(OCC(=O)N2CCC[C@H]2C2CC2)cc(=O)n1[C@H](C)c1ccc(C#CC2CC2)cc1` [Compound I-308]: the IC50 was 300 to 1000 nM and the inhibition at 2 µM was more than 75%. Turning to `Cc1cc(OCC(=O)N2CC[C@@H](C#N)C2)cc(=O)n1[C@H](C)c1ccc(C#CC2CC2)cc1` [Compound I-309], the IC50 is not above 300 nM and the inhibition at 2 µM is more than 75%. With `Cc1cc(OCC(=O)N2CC[C@H](C#N)C2)cc(=O)n1[C@H](C)c1ccc(C#CC2CC2)cc1` [Compound I-310], the IC50 is not above 300 nM and the inhibition at 2 µM is more than 75%.

The molecule `Cc1cc(OCC(=O)N2CC[C@@H](C3CC3)C2)cc(=O)n1[C@H](C)c1ccc(C#CC2CC2)cc1` [Compound I-311] gave an inhibition at 2 µM of more than 75%. Still for that read-out and setting: the result for `Cc1cc(OCC(=O)N2CC[C@H](C3CC3)C2)cc(=O)n1[C@H](C)c1ccc(C#CC2CC2)cc1` [Compound I-312] reads more than 75%. Regarding `Cc1cc(OCC(=O)N2CC(C)(CO)C2)cc(=O)n1[C@H](C)c1ccc(C#CC2CC2)cc1` [Compound I-313], the IC50 was not above 300 nM and the inhibition at 2 µM is more than 75%. Regarding `Cc1cc(OCC(=O)N2C[C@H](O)[C@@H](O)C2)cc(=O)n1[C@H](C)c1ccc(C#CC2CC2)cc1` [Compound I-314], the IC50 was not above 300 nM and the inhibition at 2 µM was more than 75%. `Cc1cc(OCC(=O)N2C[C@@H](O)[C@H](O)C2)cc(=O)n1[C@H](C)c1ccc(C#CC2CC2)cc1` [Compound I-315] returned an IC50 not above 300 nM and an inhibition at 10 µM of more than 75%.

`Cc1cc(OCC(=O)N2C[C@@H](O)[C@@H](O)C2)cc(=O)n1[C@H](C)c1ccc(C#CC2CC2)cc1` [Compound I-316] displayed an IC50 not above 300 nM and an inhibition at 2 µM of more than 75%. For the molecule `Cc1cc(OCC(=O)N(C)C)c(Br)c(=O)n1[C@H](C)c1ccc(C#CC2CC2)cc1` [Compound I-317], the inhibition at 10 µM fell in the range of 50 to 75%. For the molecule `Cc1cc(OCC(=O)N2CCC[C@@H]2C(N)=O)cc(=O)n1[C@H](C)c1ccc(C#CC2CC2)cc1` [Compound I-318], the IC50 lay within 300 to 1000 nM and the inhibition at 10 µM was more than 75%. Consider `Cc1cc(OCC(=O)N2CCC3(CC3)C2)cc(=O)n1[C@H](C)c1ccc(C#CC2CC2)cc1` [Compound I-319], for which the IC50 is not above 300 nM and the inhibition at 2 µM was more than 75%. As for `Cc1cc(OCC(=O)N2CCCC23CC3)cc(=O)n1[C@H](C)c1ccc(C#CC2CC2)cc1` [Compound I-320], the IC50 was not above 300 nM and the inhibition at 10 µM was more than 75%.

`CNS(=O)(=O)[C@@H]1CCN(C(=O)COc2cc(C)n([C@H](C)c3ccc(C#CC4CC4)cc3)c(=O)c2)C1` [Compound I-321] had an IC50 not above 300 nM and an inhibition at 2 µM of more than 75%. The molecule `CNS(=O)(=O)[C@H]1CCN(C(=O)COc2cc(C)n([C@H](C)c3ccc(C#CC4CC4)cc3)c(=O)c2)C1` [Compound I-322] displayed an IC50 of 300 to 1000 nM and an inhibition at 2 µM of more than 75%.

The molecule `CNS(=O)(=O)C1CN(C(=O)COc2cc(C)n([C@H](C)c3ccc(C#CC4CC4)cc3)c(=O)c2)C1` [Compound I-323] gave an IC50 not above 300 nM and an inhibition at 2 µM of more than 75%. For the molecule `Cc1cc(OCC(=O)N2C3CCC2COC3)cc(=O)n1[C@H](C)c1ccc(C#CC2CC2)cc1` [Compound I-324], the IC50 is not above 300 nM and the inhibition at 2 µM was more than 75%. The molecule `Cc1cc(OCC(=O)N2CC3CCC(C2)O3)cc(=O)n1[C@H](C)c1ccc(C#CC2CC2)cc1` [Compound I-325] displayed an IC50 not above 300 nM and an inhibition at 2 µM of more than 75%. The molecule `Cc1cc(OCC(=O)N2CC3CCC2CO3)cc(=O)n1[C@H](C)c1ccc(C#CC2CC2)cc1` (some centres unmarked) [Compound I-326] showed an IC50 of 1000 to 3000 nM and an inhibition at 10 µM of more than 75%.

For `Cc1cc(OCC(=O)N2CC3CCC2CO3)cc(=O)n1[C@H](C)c1ccc(C#CC2CC2)cc1` (some centres unmarked) [Compound I-327], the IC50 was 1000 to 3000 nM and the inhibition at 2 µM is more than 75%.
